Laboratory results published in patent US10689354B2, “Aminoazole derivative” (Teijin Pharma Limited, priority 2015, dated 2020).

Key:
[1] = target: T1, androgen receptor (AR-LBD) (Rattus norvegicus, UniProt P15207); assay: Evaluation of androgen receptor affinity (PolarScreen Androgen Receptor Competitor Assay Kit, Red; fluorescence polarization); conditions: 22° C. for 5 hours, relative to binding rate of 1 μM DHT, read-out: AR affinity (pEC50) (converted)
T1 construct: 5 μL of 2×AR-LBD/Fluoromone AL Red Complex contained in the kit; purchased Invitrogen
T1 sequence (P15207 651-882 limits assumed): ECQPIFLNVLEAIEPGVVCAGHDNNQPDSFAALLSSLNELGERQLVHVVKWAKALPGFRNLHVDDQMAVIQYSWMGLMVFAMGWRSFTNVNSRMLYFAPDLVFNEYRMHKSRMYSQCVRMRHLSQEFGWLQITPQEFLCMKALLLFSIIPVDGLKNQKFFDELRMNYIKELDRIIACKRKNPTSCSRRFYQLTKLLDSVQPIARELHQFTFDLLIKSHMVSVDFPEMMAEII
Summary of the method: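 Duplicate wells of test compound were mixed with the kit's rat AR-LBD–Fluoromone AL Red tracer complex and left 5 hours at 22 °C before polarization was read. A 4-parameter fit gave pEC50, with binding rate referenced to 1 μM dihydrotestosterone.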

human androgen receptor = target: T2, human androgen receptor (Homo sapiens, UniProt P10275); assay: Reporter assay of an androgen receptor responsive sequence (luciferase, transiently transfected HEK293 cells); format: cell-based; conditions: 24 hours incubation, relative to activity of 100 nM DHT, read-out: AR transcriptive activity (pEC50) (converted)
T2 construct: expressed in transfected cells; host or cells: HEK293
T2 sequence (P10275 1-920): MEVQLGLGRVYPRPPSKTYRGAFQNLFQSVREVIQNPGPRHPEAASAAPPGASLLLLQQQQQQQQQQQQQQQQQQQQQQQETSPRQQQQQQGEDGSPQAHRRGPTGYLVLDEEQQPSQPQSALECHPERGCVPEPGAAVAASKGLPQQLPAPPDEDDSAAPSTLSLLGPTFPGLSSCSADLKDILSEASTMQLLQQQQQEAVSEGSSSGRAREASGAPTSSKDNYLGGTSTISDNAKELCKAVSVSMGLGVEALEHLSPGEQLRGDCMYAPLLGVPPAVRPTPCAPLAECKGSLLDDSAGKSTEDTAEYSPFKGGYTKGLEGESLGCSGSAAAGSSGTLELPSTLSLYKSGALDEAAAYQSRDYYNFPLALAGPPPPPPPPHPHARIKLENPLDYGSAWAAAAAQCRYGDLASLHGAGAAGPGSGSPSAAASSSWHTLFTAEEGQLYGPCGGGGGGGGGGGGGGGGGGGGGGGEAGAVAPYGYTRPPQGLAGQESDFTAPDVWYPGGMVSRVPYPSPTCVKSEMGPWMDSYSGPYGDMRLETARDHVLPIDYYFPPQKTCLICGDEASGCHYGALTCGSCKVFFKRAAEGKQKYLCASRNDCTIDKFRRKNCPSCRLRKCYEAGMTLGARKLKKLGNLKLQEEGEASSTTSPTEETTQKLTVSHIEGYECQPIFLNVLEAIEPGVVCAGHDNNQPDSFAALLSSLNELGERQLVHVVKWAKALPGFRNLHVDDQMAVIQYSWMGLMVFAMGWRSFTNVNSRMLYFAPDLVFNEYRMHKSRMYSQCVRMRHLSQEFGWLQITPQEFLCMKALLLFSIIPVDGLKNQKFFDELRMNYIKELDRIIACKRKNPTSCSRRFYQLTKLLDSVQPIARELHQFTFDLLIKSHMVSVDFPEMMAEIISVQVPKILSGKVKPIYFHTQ
Summary of the method: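 Agonism scored as pEC50, fitted by 4-parameter curve against the response to 100 nM DHT, from dual-luciferase readout after 24 h compound treatment. Cells were HEK293 co-transfected (3 h) with human AR expression vector, androgen-responsive firefly reporter and Renilla control, in charcoal-stripped serum.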

Structure (SMILES) | EC50 [1] [nM] | EC50 (human androgen receptor) [nM]
COc1ccc(CN(c2ccc(C#N)cc2)c2nc(C(=O)NS(C)(=O)=O)c(C)s2)nc1 [Compound 515, 2-[4-cyano-N-[(5-methoxy-2-pyridyl)methyl]anilino]-5-methyl-N-methylsulfonyl-thiazole-4-carboxamide] | 794 | 501
CCCCN(c1ccc(C#N)cc1)c1nc(C(=O)NS(C)(=O)=O)c(C)s1 [Compound 64, 2-(N-butyl-4-cyano-anilino)-5-methyl-N-methylsulfonyl-thiazole-4-carboxamide] | 251 | 2510
Cc1sc(N(Cc2cc3ccccc3cn2)c2ccc(C#N)cc2)nc1C(=O)NS(C)(=O)=O [Compound 529, 2-[4-cyano-N-(3-isoquinolylmethyl)anilino]-5-methyl-N-methylsulfonyl-thiazole-4-carboxamide] | 398 | 316
Cc1sc(N(Cc2ccc(OC(F)F)nc2)c2ccc(C#N)cc2)nc1C(=O)NS(C)(=O)=O [Compound 524, 2-[4-cyano-N-[[6-(difluoromethoxy)-3-pyridyl]methyl]anilino]-5-methyl-N-methylsulfonyl-thiazole-4-carboxamide] | 39.8 | 501
Cc1sc(N(CC2CC3CCC2C3)c2ccc(C#N)cc2)nc1C(=O)NS(C)(=O)=O (stereo not drawn) [Compound 447, 2-[4-cyano-N-(norbornan-2-ylmethyl)anilino]-5-methyl-N-methylsulfonyl-thiazole-4-carboxamide] | 50.1 | 2510
Cc1sc(N(Cc2ccc(OC(F)F)c(Cl)c2)c2ccc(C#N)cc2)nc1C(=O)NS(C)(=O)=O [Compound 536, 2-[N-[[3-chloro-4-(difluoromethoxy)phenyl]methyl]-4-cyano-anilino]-5-methyl-N-methylsulfonyl-thiazole-4-carboxamide] | 20 | 39.8
Cc1sc(N(Cc2ccc3ncsc3c2)c2ccc(C#N)cc2)nc1C(=O)NS(C)(=O)=O [Compound 50, 2-[N-(1,3-benzothiazol-6-ylmethyl)-4-cyano-anilino]-5-methyl-N-methylsulfonyl-thiazole-4-carboxamide] | 79.4 | 50.1
Cc1sc(N(Cc2cccc3cccnc23)c2ccc(C#N)cc2)nc1C(=O)NS(C)(=O)=O [Compound 390, 2-[4-cyano-N-(8-quinolylmethyl)anilino]-5-methyl-N-methylsulfonyl-thiazole-4-carboxamide] | 126 | 200
Cc1sc(N(CCc2ccc(Cl)cc2)Cc2cccc(F)c2)nc1C(=O)NS(C)(=O)=O [Compound 143, 2-[2-(4-chlorophenyl)ethyl-[(3-fluorophenyl)methyl]amino]-5-methyl-N-methylsulfonyl-thiazole-4-carboxamide] | 25.1 | 50.1
Cc1sc(N(CC[Si](C)(C)C)c2ccc(C#N)cc2)nc1C(=O)NS(C)(=O)=O [Compound 476, 2-[4-cyano-N-(2-trimethylsilylethyl)anilino]-5-methyl-N-methylsulfonyl-thiazole-4-carboxamide] | 200 | > 10000
COCCCS(=O)(=O)NC(=O)c1nc(N(Cc2cc(F)cc(OC(F)F)c2)c2ccc(C#N)cc2)sc1C [Compound 519, 2-[4-cyano-N-[[3-(difluoromethoxy)-5-fluoro-phenyl]methyl]anilino]-N-(3-methoxypropylsulfonyl)-5-methyl-thiazole-4-carboxamide] | 25.1 | 158
Cc1sc(N(Cc2ccc(C3CC3)nc2)c2ccc(C#N)cc2)nc1C(=O)NS(C)(=O)=O [Compound 593, 2-[4-cyano-N-[(6-cyclopropyl-3-pyridyl)methyl]anilino]-5-methyl-N-methylsulfonyl-thiazole-4-carboxamide] | 251 | 200
Cc1sc(N(Cc2ccc3c(c2)OCO3)c2ccc(C#N)cc2)nc1C(=O)NS(C)(=O)=O [Compound 128, 2-[N-(1,3-benzodioxol-5-ylmethyl)-4-cyano-anilino]-5-methyl-N-methylsulfonyl-thiazole-4-carboxamide] | 39.8 | 100

The next lines start with the values.

EC50 [1] [nM] | EC50 (human androgen receptor) [nM] | Structure (SMILES)
63.1 | 79.4 | Cc1sc(N(Cc2ccc(C(F)(F)F)c(C#N)c2)c2ccc(C#N)cc2)nc1C(=O)NS(C)(=O)=O [Example 187, 2-[4-cyano-N-[[3-cyano-4-(trifluoromethyl)phenyl]methyl]anilino]-5-methyl-N-methylsulfonyl-thiazole-4-carboxamide]
39.8 | 398 | CCc1oc(N(Cc2ccc(OC(F)F)cc2)c2ccc(C#N)cc2)nc1C(=O)NS(C)(=O)=O [Compound 634, 2-[4-cyano-N-[[4-(difluoromethoxy)phenyl]methyl]anilino]-5-ethyl-N-methylsulfonyl-oxazole-4-carboxamide]
63.1 | > 10000 | Cc1sc(N(CCc2ccc(Cl)cc2)CC2CCCCC2)nc1C(=O)NS(=O)(=O)Cc1cccnc1 [Compound 699, 2-[2-(4-chlorophenyl)ethyl-(cyclohexylmethyl)amino]-5-methyl-N-(3-pyridylmethylsulfonyl)thiazole-4-carboxamide]
50.1 | 158 | COCCCS(=O)(=O)NC(=O)c1nc(N(Cc2ccc(OC(F)F)cc2)c2ccc(C#N)cc2)sc1C [Example 165, 2-[4-cyano-N-[[4-(difluoromethoxy)phenyl]methyl]anilino]-N-(3-methoxypropylsulfonyl)-5-methyl-thiazole-4-carboxamide]
39.8 | > 10000 | CS(=O)(=O)NC(=O)c1nc(N(Cc2ccc(Cl)cc2)c2ccc(C#N)cc2)oc1C1CC1 [Compound 646, 2-[N-[(4-chlorophenyl)methyl]-4-cyano-anilino]-5-cyclopropyl-N-methylsulfonyl-oxazole-4-carboxamide]
50.1 | 200 | Cc1oc(N(Cc2ccc(Br)cc2)c2ccc(C#N)cc2)nc1C(=O)NS(C)(=O)=O [Example 285, 2-[N-[(4-bromophenyl)methyl]-4-cyano-anilino]-5-methyl-N-methylsulfonyl-oxazole-4-carboxamide]
398 | > 10000 | CCc1oc(N(Cc2ccc(OC(F)F)cn2)c2ccc(C#N)cc2)nc1C(=O)NS(C)(=O)=O [Compound 635, 2-[4-cyano-N-[[5-(difluoromethoxy)-2-pyridyl]methyl]anilino]-5-ethyl-N-methylsulfonyl-oxazole-4-carboxamide]
501 | > 10000 | Cc1sc(N(Cc2ccc(Cl)cc2C#N)c2ccc(C#N)cc2)nc1C(=O)NS(C)(=O)=O [Example 184, 2-[N-[(4-chloro-2-cyano-phenyl)methyl]-4-cyano-anilino]-5-methyl-N-methylsulfonyl-thiazole-4-carboxamide]
39.8 | 316 | CS(=O)(=O)NC(=O)c1nc(N(Cc2ccc(F)cc2)c2ccc(C(F)(F)F)nc2)sc1Br [Example 282, 5-bromo-2-[(4-fluorophenyl)methyl-[6-(trifluoromethyl)-3-pyridyl]amino]-N-methylsulfonyl-thiazole-4-carboxamide]
398 | 631 | Cc1nc(CN(c2ccc(C#N)cc2)c2nc(C(=O)NS(C)(=O)=O)c(Br)s2)cs1 [Example 281, 5-bromo-2-[4-cyano-N-[(2-methylthiazol-4-yl)methyl]anilino]-N-methylsulfonyl-thiazole-4-carboxamide]
100 | > 10000 | Cc1sc(N(CCc2ccc(C#N)cc2)CC2CCCCC2)nc1C(=O)NS(=O)(=O)Cc1cccnc1 [Compound 725, 2-[2-(4-cyanophenyl)ethyl-(cyclohexylmethyl)amino]-5-methyl-N-(3-pyridylmethylsulfonyl)thiazole-4-carboxamide]
